US10294244B2, “2,3-dihydro-thiazolo[3,2-A]pyridin-5-one derivatives, intermediates thereof, and their use as antibacterial agents” (Quretech Bio AB, priority 2014, dated 2019)

Tested on: C. trachomatis serovar LGV-L2
Experiment: Inhibition of infectious Chlamydia progenies (C. trachomatis infectivity, reinfection of HeLa cells, IFU count)
Type: cell-based
Conditions: infected HeLa cells, MOI 0.3, compound added 1 hpi, 44-48 h, relative to DMSO-treated control; for inhibition at 10 µM: 10 uM compound; for inhibition at 2.5 µM: 2.5 uM compound
Description: Cell Culture, C. trachomatis Infections, and Determination of C. trachomatis Infectivity.
HeLa cells were infected with C. trachomatis serovar LGV-L2 at an MOI of 0.3. At 1 hpi, RPMI media containing the different dilutions of the tested compounds in DMSO were added. The different compounds were dissolved to 20 mM in DMSO and were then diluted with RPMI media to be added at 2.5 to 100 μM. After 44-48 h incubation, the cells were osmotically lysed by the addition of cold sterile distilled water to release infectious EB progeny. 5×SPG was added to equalize the osmotic pressure to a 1×SPG isotonic condition. An equal amount of HBSS (Hanks balanced salt solution) (Gibco/Invitrogen) was added to the lysate (yielding a 1:1 dilution) and 10-fold serial dilutions of the resulting mixture was used to infect fresh HeLa cells. At 1 hpi, the inoculum was replaced with RPMI media and the infection allowed to progress for 44-48 hours before fixation and staining. Fixation was performed by adding methanol for 5 minutes and the cells were subsequently washed with phosphate buffered saline (PBS). The chlamydial inclusions were stained by a primary rabbit anti-Chlamydia antibody (generated in-house) and a secondary donkey anti-rabbit FITC-labelled antibody (Jackson ImmunoResearch). The DNA of the cells and Chlamydia was stained by the addition of DAPI. The stained cells were analyzed by an ArrayScan automated scanner (ArrayScan VTI HCS, Thermo Scientific). Data were presented as the relative numbers of IFUs in treated infections compared to the numbers of IFUs in DMSO-treated control infections.
The compounds of Examples 1-33 were tested for inhibition of infectious Chlamydia progenies at concentrations of 2.5 μM, 10 μM, 50 μM and 100 μM. In this document μM stands for micromolar. The compounds of the present disclosure were considered to have antibacterial activity if they provided 50% or more inhibition of infectious Chlamydia progenies using at least one of the tested concentrations in Table 1.

Compound | inhibition at 10 µM [%] | inhibition at 50 µM (50 uM compound) [%] | inhibition at 100 µM (100 uM compound) [%] | inhibition at 2.5 µM [%]
CS(=O)(=O)Nc1c(Cc2cccc3ccccc23)cc(=O)n2c1SC[C@H]2C(=O)Nc1ccccc1 [Example 25, Anilino{7-(methylsulfonylamino)-6-[(1-naphthyl)methyl]-4-oxo-1-thia-3a-aza-3-indanyl}formaldehyde] | 97 | 97 | – | –
O=C(O)[C@@H]1CSc2c(OCC3CC3)c(Cc3cccc4ccccc34)cc(=O)n21 [Example 28, (3R)-7-(Cyclopropylmethoxy)-6-[(1-naphthyl)methyl]-4-oxo-1-thia-3a-aza-3-indancarboxylic acid] | – | – | 56 | –
COc1c(Cc2cccc3ccccc23)cc(=O)n2c1SC[C@H]2C(=O)Nc1ccccc1 [Example 1, {(3R)-7-Methoxy-6-[(1-naphthyl)methyl]-4-oxo-1-thia-3a-aza-3-indanyl}anilinoformaldehyde] | – | – | – | 100
COc1c(Cc2cccc3ccccc23)cc(=O)n2c1SC[C@H]2C(=O)Nc1ccc(C)cc1 [Example 2, {(3R)-7-Methoxy-6-[(1-naphthyl)methyl]-4-oxo-1-thia-3a-aza-3-indanyl}(p-toluidino)formaldehyde] | 100 | – | – | 96
